Results taken from patent US11203578B2, “Oxadiazole derivatives for the treatment of genetic diseases due to nonsense mutations” (UNIVERSITA' DEGLI STUDI DIPALERMO, priority 2017, dated 2021).
“And” between values parts separate entries of the source, which are not always exact repeats. Equal entries are not always repeated. Where two headings read alike, the source gives them in different places.

Experiments:
[1] = tested on: pFLuc-opal (UGA stop mutation); details: luciferase activity known data, converted to pFLUC (−log FLUC); literature [1], [2]; cited from earlier work
[2] = tested on: pFLuc-opal (UGA stop mutation); assay: FLuc cell-based readthrough assay in HeLa FLuc-opal transfected cells; design: key to Pharm Set: Active: as active, compounds with FLUC values >4.52 (ATALUREN FLUC value); Inactive: as inactives, compounds with FLUC values ≤4.00; Moderate: as moderate actives, compounds with 4.39≤FLUC values ≤4,51; details: for Pharm Set: class of activity related to the FLUC values
Excerpt: The results disclosed in (Pibiri I., Lentini L., Tutone M., Melfi R., Pace A., Di Leonardo A. Exploring the readthrough of nonsense mutations by non-acidic Ataluren analogues selected by ligand-based virtual screening. Eur. J. Med. Chem. 122 (2016) 429-435) have been refined with 3D-QSAR (quantitative structure-activity relationships) pharmacophore modelling. The endpoint to build QSAR models was the luciferase activity known data. These values were converted to pFLUC (−log FLUC) values. In order to find the common pharmacophore hypothesis, we divided the 24 compounds in three different classes of activity related to the FLUC values (Pharm set). We considered as active, compounds with FLUC values >4.52 (ATALUREN FLUC value), as inactives, compounds with FLUC values ≤4.00, and as moderate actives, compounds with 4.39≤FLUC values ≤4,51. Dataset was randomly split into a training set (19 compounds) for models generation, and test set (5 compounds) for the validation of developed models, as reported in Table 1.
To ascertain the effectiveness of the newly synthesized ataluren analogues in promoting the readthrough of premature termination codons was used the FLuc cell-based assay. To this aim HeLa cells were transfected transiently with the plasmids pFLuc-wild type (control) and pFLuc-opal (UGA stop mutation) (NIH Chemical Genomics Center, National Institutes of Health, Bethesda, USA). FLuc gene expression was then measured by luminescence.

HeLa cells = assay: Cytotoxic effects and impact on cell proliferation in HeLa cells; format: cell-based; details: 12 μM
Procedure: HeLa cells were used to determine the possible cytotoxic effects of our compounds and the impact on cell proliferation. In FIG. 7 are reported the percentages of dead cells and proliferating cells after treatment with 12 μM compounds and 12 μM ATALUREN.

O=C(O)c1cccc(-c2noc(-c3ccccc3F)n2)c1 [ATALUREN, 3-(5-(2-Fluorophenyl)-1,2,4-oxadiazol-3-yl)benzoic acid]
RLU values Exp. [1]: 4.52 and 4.528
Pharm Set [2]: Active
dead cells (HeLa cells; 24 h): 4%
dead cells (HeLa cells; 72 h): 7%

COC(=O)c1cccc(-c2noc(-c3ccccc3F)n2)c1 [Compound 1-NV1103]
RLU values Exp. [1]: 4.532
Pharm Set [2]: Active

COC(=O)c1cccc(-c2noc(-c3cccc(F)c3)n2)c1 [Compound 2-NV1127]
RLU values Exp. [1]: 4.477
Pharm Set [2]: Moderate (as moderate actives, compounds with 4.39≤FLUC values ≤4,51)

O=C(O)c1cccc(-c2noc(-c3cccc(F)c3)n2)c1 [Compound 3-NV1133, 3-(5-(3-Fluorophenyl)-1,2,4-oxadiazol-3-yl)benzoic acid]
RLU values Exp. [1]: 4.628
Pharm Set [2]: Active

COC(=O)c1cccc(-c2noc(-c3cc(F)c(F)cc3F)n2)c1 [Compound 4-NV1128, Methyl 3-(5-(2,4,5-trifluorophenyl)-1,2,4-oxadiazol-3-yl) benzoate)]
RLU values Exp. [1]: 4.397
Pharm Set [2]: Moderate (as moderate actives, compounds with 4.39≤FLUC values ≤4,51)

O=C(O)c1cccc(-c2noc(-c3cc(F)c(F)cc3F)n2)c1 [Compound 5-NV1173, 3-(5-(2,4,5-Trifluorophenyl)-1,2,4-oxadiazol-3-yl)benzoic acid]
RLU values Exp. [1]: 4.788
Pharm Set [2]: Active

COC(=O)c1cccc(-c2noc(-c3ccc(F)cc3)n2)c1 [Compound 6-NV1153]
RLU values Exp. [1]: 4.125
Pharm Set [2]: Inactive

COC(=O)c1cccc(-c2noc(-c3cccc(F)c3F)n2)c1 [Compound 7-NV1149]
RLU values Exp. [1]: 4.103
Pharm Set [2]: Inactive

COC(=O)c1cccc(-c2noc(-c3cccc(F)c3F)n2)c1 [Compound 8-NV1170, Methyl 3-(5-(2,3-difluorophenyl)-1,2,4-oxadiazol-3-yl)ben zoate)]
RLU values Exp. [1]: 4.311
Pharm Set [2]: Moderate (as moderate actives, compounds with 4.39≤FLUC values ≤4,51)

COC(=O)c1cccc(-c2noc(-c3ccc(F)c(F)c3)n2)c1 [Compound 9-NV1175, Methyl 3-(5-(3,4-difluorophenyl)-1,2,4-oxadiazol-3-yl)ben-zoate)]
RLU values Exp. [1]: 4.269
Pharm Set [2]: Moderate (as moderate actives, compounds with 4.39≤FLUC values ≤4,51)

COC(=O)c1cccc(-c2noc(-c3ccc(F)cc3F)n2)c1 [Compound 10-NV1171, Methyl 3-(5-(2,4-difluorophenyl)-1,2,4-oxadiazol-3-yl)ben-zoate)]
RLU values Exp. [1]: 4.439
Pharm Set [2]: Moderate (as moderate actives, compounds with 4.39≤FLUC values ≤4,51)

COC(=O)c1cccc(-c2noc(-c3c(F)cccc3F)n2)c1 [Compound 11-NV1174, Methyl 3-(5-(2,6-difluorophenyl)-1,2,4-oxadiazol-3-yl)ben-zoate)]
RLU values Exp. [1]: 4.414
Pharm Set [2]: Moderate (as moderate actives, compounds with 4.39≤FLUC values ≤4,51)

Cc1cccc(-c2noc(-c3ccccc3F)n2)c1 [Compound 12-NV1798, 3-Toluyl, 5-(2-fluorophenyl)-1,2,4-oxadiazole]
RLU values Exp. [1]: 4.178
Pharm Set [2]: Inactive

COC(=O)c1cccc(-c2noc(-c3c(F)c(F)c(F)c(F)c3F)n2)c1 [Compound 13-NV1951]
RLU values Exp. [1]: 4.008
Pharm Set [2]: Inactive

O=C(O)c1cccc(-c2noc(-c3c(F)c(F)c(F)c(F)c3F)n2)c1 [Compound 14-NV1954, 3-(5-(Perfluorophenyl)-1,2,4-oxadiazol-3-yl)benzoic acid]
RLU values Exp. [1]: 4.171
Pharm Set [2]: Inactive

N#Cc1cccc(-c2nc(-c3ccccn3)no2)c1 [Compound 15-NV1859, 3-(2′-pyridyl)-5-(3′-cyanophenyl)-1,2,4-oxadiazole]
RLU values Exp. [1]: 4.363
Pharm Set [2]: Moderate (as moderate actives, compounds with 4.39≤FLUC values ≤4,51)

Cc1cccc(-c2nc(-c3ccncc3)no2)c1 [Compound 16-NV1861, 3-(4′-pyridyl)-5-(3′-toluyl)-1,2,4-oxadiazole]
RLU values Exp. [1]: 4.250
Pharm Set [2]: Moderate (as moderate actives, compounds with 4.39≤FLUC values ≤4,51)

Cc1cccc(-c2nc(-c3cccnc3)no2)c1 [Compound 17-NV1879, 3-(3′-pyridyl)-5-(3′-toluyl)-1,2,4-oxadiazole]
RLU values Exp. [1]: 4.411
Pharm Set [2]: Moderate (as moderate actives, compounds with 4.39≤FLUC values ≤4,51)

Cc1cccc(-c2nc(-c3ccccc3)no2)c1 [Compound 18-NV1883, 3-(3′-phenyl)-5-(3′-toluyl)-1,2,4-oxadiazole]
RLU values Exp. [1]: 4.428
Pharm Set [2]: Moderate (as moderate actives, compounds with 4.39≤FLUC values ≤4,51)

Cc1cccc(-c2noc(-c3ccccc3C)n2)c1 [Compound 19-NV1894, 3-(3-toluyl), 5-(2-toluyl)-1,2,4-oxadiazole]
RLU values Exp. [1]: 4.250
Pharm Set [2]: Moderate (as moderate actives, compounds with 4.39≤FLUC values ≤4,51)

Cc1cccc(-c2noc(-c3cccc(C)c3)n2)c1 [Compound 20-NV1905, 3-(3-toluyl), 5-(3-toluyl)-1,2,4-oxadiazole]
Pharm Set [2]: Inactive
RLU values Exp. ([2]; luciferase activity converted to pFLUC, [3] unpublished data): 4.181

Cc1cccc(-c2nc(-c3ccccn3)no2)c1 [Compound 21-NV1898, 3-(2-pyridyl)-5-(3′-toluyl)-1,2,4-oxadiazole]
RLU values Exp. [1]: 4.551
Pharm Set [2]: Active

COc1cccc(C(=O)c2nc(-c3ccncc3)no2)c1 [Compound 22-NV1919, 3-(4′-pyridyl)-5-(3′-anisoyl)-1,2,4-oxadiazole]
RLU values Exp. [1]: 4.253
Pharm Set [2]: Moderate (as moderate actives, compounds with 4.39≤FLUC values ≤4,51)

COc1cccc(C(=O)c2nc(-c3ccccn3)no2)c1 [Compound 23-NV1940, 3-(2-pyridyl)-5-(3′-anisoyl)-1,2,4-oxadiazole]
RLU values Exp. [1]: 4.000
Pharm Set [2]: Inactive
